Reference: ChEMBL document CHEMBL1150413, “A series of potent and selective, triazolylphenyl-based histone deacetylases inhibitors with activity against pancreatic cancer cells and Plasmodium falciparum” (J Med Chem, 2008)

Experiments:
[1] = target: Histone deacetylase 2 (Homo sapiens, UniProt Q92769)
[2] = Selectivity for HDAC10 over HDAC1
[3] = tested on: BXPC-3; assay: Cytotoxicity against human BxPC3 cells after 72 hrs by MTT assay; assay type: functional, cell-based; conditions: BXPC-3, 72 h
[4] = Cytotoxicity against human Hup T3 cells after 72 hrs by MTT assay; assay type: functional, cell-based; conditions: HuP-T3, 72 h
[5] = tested on: MIA PaCa-2; assay: Cytotoxicity against human Mia Paca2 cells after 72 hrs by MTT assay; assay type: functional, cell-based; conditions: MIA PaCa-2, 72 h
[6] = Cytotoxicity against human Panc 04.03 cells after 72 hrs by MTT assay; assay type: functional, cell-based; conditions: Panc 04.03, 72 h
[7] = Cytotoxicity against human SU 86.86 cells after 72 hrs by MTT assay; assay type: functional, cell-based; conditions: SU.86.86, 72 h
[8] = tested on: Plasmodium falciparum; assay: Antimalarial activity against Plasmodium falciparum D6 by hypoxanthine uptake; assay type: functional, organism-based
[9] = tested on: Plasmodium falciparum; assay: Antimalarial activity against Plasmodium falciparum W2 by hypoxanthine uptake; assay type: functional, organism-based
[10] = tested on: Plasmodium falciparum; assay: Antimalarial activity against Plasmodium falciparum TM90C2A by hypoxanthine uptake; assay type: functional, organism-based
[11] = target: Histone deacetylase 1 (Homo sapiens, UniProt Q13547)
[12] = target: T1, Histone deacetylase 8 (Homo sapiens, UniProt Q9BY41)
T1 sequence (Q9BY41 whole entry): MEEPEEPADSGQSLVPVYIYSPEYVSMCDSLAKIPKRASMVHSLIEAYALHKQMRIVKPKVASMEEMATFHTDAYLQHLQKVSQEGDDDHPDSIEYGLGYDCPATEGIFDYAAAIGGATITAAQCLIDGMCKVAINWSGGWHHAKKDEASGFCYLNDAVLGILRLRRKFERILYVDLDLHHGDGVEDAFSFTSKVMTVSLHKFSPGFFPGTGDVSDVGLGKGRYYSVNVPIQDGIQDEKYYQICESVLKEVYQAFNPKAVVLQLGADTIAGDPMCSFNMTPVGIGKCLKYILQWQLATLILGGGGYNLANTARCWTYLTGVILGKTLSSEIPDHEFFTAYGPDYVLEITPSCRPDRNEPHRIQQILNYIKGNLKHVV

[13] = target: T2, Polyamine deacetylase HDAC10 (Homo sapiens, UniProt Q969S8)
T2 sequence (Q969S8 whole entry): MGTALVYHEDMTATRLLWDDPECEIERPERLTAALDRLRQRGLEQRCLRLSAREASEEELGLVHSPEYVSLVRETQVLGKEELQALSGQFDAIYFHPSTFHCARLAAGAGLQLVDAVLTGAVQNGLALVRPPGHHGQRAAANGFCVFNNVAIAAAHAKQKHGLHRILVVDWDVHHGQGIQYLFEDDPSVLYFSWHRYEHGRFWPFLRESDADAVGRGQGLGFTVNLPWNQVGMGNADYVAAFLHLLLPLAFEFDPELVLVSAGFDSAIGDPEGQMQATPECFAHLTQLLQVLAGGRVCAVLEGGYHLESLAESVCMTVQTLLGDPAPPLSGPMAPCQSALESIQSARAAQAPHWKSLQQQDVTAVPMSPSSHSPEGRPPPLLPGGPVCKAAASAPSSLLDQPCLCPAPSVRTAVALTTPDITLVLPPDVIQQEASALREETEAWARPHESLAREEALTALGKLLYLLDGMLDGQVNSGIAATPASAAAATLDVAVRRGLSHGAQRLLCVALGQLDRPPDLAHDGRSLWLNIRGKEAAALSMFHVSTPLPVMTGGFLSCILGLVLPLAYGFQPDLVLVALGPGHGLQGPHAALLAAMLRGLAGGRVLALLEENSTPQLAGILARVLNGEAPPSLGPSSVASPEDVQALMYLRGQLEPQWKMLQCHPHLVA

[14] = target: T3, Protein deacetylase HDAC6 (Homo sapiens, UniProt Q9UBN7)
T3 sequence (Q9UBN7 whole entry): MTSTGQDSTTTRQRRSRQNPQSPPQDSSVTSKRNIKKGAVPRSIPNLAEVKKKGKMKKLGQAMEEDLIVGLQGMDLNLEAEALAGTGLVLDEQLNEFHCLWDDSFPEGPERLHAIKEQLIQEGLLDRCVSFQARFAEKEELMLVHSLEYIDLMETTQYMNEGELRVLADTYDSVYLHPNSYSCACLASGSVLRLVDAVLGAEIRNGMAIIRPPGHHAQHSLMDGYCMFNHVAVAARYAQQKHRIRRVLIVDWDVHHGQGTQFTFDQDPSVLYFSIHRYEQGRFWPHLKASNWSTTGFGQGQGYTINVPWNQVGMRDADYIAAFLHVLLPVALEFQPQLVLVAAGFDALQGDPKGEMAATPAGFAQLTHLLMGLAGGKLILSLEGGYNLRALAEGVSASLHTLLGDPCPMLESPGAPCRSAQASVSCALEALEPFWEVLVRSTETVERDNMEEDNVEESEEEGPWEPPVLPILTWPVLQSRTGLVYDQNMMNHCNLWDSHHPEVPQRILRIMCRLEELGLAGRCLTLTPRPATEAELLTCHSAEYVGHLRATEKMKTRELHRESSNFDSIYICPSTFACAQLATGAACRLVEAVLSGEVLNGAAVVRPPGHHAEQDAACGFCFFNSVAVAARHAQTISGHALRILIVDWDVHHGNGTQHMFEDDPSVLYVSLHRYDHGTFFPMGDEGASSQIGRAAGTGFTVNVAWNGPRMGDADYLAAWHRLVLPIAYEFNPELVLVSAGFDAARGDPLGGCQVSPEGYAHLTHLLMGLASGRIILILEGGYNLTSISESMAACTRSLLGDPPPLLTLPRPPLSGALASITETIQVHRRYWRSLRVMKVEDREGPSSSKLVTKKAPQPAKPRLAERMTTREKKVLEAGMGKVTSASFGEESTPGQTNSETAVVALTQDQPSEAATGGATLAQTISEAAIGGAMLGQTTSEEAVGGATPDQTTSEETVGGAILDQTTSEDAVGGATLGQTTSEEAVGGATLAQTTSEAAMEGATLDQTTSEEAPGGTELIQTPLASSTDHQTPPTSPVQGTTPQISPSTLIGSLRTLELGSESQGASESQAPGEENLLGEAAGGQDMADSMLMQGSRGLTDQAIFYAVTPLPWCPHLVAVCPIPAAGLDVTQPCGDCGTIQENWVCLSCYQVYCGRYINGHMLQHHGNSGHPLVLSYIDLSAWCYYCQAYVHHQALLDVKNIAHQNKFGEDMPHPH

[15] = tested on: Plasmodium falciparum; assay: microbe, parasite or virus in culture; conditions: TM91C235
Description: Antimalarial activity against Plasmodium falciparum TM91C235 by hypoxanthine uptake

[16] = target: Histone deacetylase 3 (Homo sapiens, UniProt O15379)
Sequence of Histone deacetylase 3 (O15379 whole entry): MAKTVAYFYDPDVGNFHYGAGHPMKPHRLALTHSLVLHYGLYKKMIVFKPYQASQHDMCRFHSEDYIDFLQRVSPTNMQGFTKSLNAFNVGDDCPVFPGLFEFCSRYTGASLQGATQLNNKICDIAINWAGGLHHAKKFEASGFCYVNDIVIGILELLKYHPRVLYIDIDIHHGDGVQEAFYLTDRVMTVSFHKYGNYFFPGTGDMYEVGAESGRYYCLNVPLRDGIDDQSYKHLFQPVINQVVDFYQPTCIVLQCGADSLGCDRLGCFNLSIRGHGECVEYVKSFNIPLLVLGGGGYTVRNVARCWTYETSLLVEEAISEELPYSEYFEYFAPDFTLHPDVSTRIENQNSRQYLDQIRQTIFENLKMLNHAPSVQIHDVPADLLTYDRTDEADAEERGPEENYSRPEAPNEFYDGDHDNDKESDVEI

Sequence of Histone deacetylase 1 (Q13547 whole entry): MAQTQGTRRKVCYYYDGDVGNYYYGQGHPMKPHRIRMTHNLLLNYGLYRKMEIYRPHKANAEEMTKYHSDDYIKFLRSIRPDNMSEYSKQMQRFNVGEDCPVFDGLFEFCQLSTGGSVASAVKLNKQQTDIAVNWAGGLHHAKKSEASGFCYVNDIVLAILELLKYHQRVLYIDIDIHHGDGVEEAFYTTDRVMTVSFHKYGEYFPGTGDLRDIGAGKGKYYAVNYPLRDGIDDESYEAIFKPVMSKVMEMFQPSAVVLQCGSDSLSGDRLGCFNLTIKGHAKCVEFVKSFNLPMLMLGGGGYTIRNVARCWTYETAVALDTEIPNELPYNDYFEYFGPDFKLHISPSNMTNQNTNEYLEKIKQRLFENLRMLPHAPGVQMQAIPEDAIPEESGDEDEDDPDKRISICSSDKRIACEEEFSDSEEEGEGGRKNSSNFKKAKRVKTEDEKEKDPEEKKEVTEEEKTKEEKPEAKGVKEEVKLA
Sequence of Histone deacetylase 2 (Q92769 whole entry): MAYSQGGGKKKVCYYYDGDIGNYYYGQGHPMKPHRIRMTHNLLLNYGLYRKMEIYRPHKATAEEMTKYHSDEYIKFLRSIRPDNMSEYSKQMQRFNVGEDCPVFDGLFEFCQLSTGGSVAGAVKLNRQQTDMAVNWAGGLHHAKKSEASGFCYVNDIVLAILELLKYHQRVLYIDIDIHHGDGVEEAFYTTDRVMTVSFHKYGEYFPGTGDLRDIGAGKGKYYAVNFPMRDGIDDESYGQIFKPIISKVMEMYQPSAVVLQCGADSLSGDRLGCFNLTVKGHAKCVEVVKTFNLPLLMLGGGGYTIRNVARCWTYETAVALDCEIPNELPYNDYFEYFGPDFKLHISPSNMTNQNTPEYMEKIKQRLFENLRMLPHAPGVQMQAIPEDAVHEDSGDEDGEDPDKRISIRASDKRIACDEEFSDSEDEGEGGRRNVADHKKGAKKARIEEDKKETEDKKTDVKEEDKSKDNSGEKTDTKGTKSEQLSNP

Structure (SMILES)	IC50 [1] [nM]	Ratio IC50 [2]	IC50 [3] [nM]	IC50 [4] [nM]	IC50 [5] [nM]	IC50 [6] [nM]	IC50 [7] [nM]	IC50 [8] [nM]	IC50 [9] [nM]	IC50 [10] [nM]	IC50 [11] [nM]	IC50 [12] [nM]	IC50 [13] [nM]	IC50 [14] [nM]	IC50 [15] [nM]	IC50 [16] [nM]
O=C(CCCCCCC(=O)Nc1ccc(-c2cn(Cc3ccccc3)nn2)cc1)NO	679	0.6	9000	5000	< 1000	2000	10000	210	530	160	113	3970	188	4.8	300	–
O[C@@H](c1cc(C(F)(F)F)nc2c(C(F)(F)F)cccc12)[C@H]1CCCCN1 [MEFLOQUINE]	–	–	–	–	–	–	–	11	–	–	–	–	–	–	–	–
O=C(CCCCCCC(=O)Nc1ccc(-c2cnnn2-c2ccccc2)cc1)NO	146	1.3	13000	10000	8000	8000	11000	350	620	170	70.5	518	55.7	3.5	470	12
O=C(CCCCCCC(=O)Nc1ccc(-c2cnnn2Cc2ccc(F)cc2)cc1)NO	57.4	0.8	11000	4000	8000	2000	10000	240	460	120	52.4	2010	64.7	7.3	290	16.4
O=C(CCCCCCC(=O)Nc1cccc(-c2cn(Cc3ccccc3)nn2)c1)NO	43	0.8	3000	1000	< 500	2000	2000	140	160	190	14.5	1990	18.5	3.1	220	7.9
O=C(CCCCCCC(=O)Nc1cccc(-c2cnnn2Cc2ccc(F)cc2)c1)NO	124	1.5	11000	5000	2000	9000	8000	300	590	210	25.9	529	17.6	3.8	460	5.8
O=C(CCCCCCC(=O)Nc1ccc(-c2cn(Cc3ccc(F)cc3)nn2)cc1)NO	294	0.9	22000	4000	< 500	3000	11000	–	–	–	97.8	797	112	1.9	–	13.7
O=C(CCCCCCC(=O)Nc1cccc(-c2cnnn2CC(O)c2cccc(Br)c2)c1)NO (centres undefined)	116	1.5	43000	42000	11000	25000	23000	180	380	120	23.4	406	15.8	2.8	390	4.2
O=C(CCCCCCC(=O)Nc1ccc(-c2cnnn2CC(O)c2cccc(Br)c2)cc1)NO (centres undefined)	216	0.9	25000	46000	37000	44000	42000	230	> 950	230	69.9	737	74.8	4.2	390	15.1
O=C(CCCCCCC(=O)Nc1cccc(-c2cn(CC(O)c3cccc(Br)c3)nn2)c1)NO (centres undefined)	64.4	1.1	11000	11000	800	14000	12000	110	560	110	14.9	440	13	1.9	260	2.7
O=C(CCCCCCC(=O)Nc1ccccc1)NO [VORINOSTAT]	–	–	–	800	–	–	–	–	–	–	–	–	–	–	–	–
O=C(CCCCCCC(=O)Nc1ccc(-c2cn(CC(O)c3cccc(Br)c3)nn2)cc1)NO (centres undefined)	143	0.8	18000	12000	600	10000	12000	80	390	190	69.2	3130	86.5	4.4	110	25.3
O=C(CCCCCCC(=O)Nc1ccc(-c2cnnn2Cc2ccccc2)cc1)NO	124	1	11000	5000	2000	2000	9000	400	> 1200	300	68.3	790	70.1	3.1	520	9.7
O=C(CCCCCCC(=O)Nc1cccc(-c2cnnn2Cc2ccccc2)c1)NO	112	1	12000	2000	1000	4000	7000	210	600	150	18.6	433	19.2	3.3	370	4.5
